Experimental data as given in EP1210336B1, “SUBSTITUTED BENZIMIDAZOLES AS NON-NUCLEOSIDE INHIBITORS OF REVERSE TRANSCRIPTASE” (THE UNITED STATES OF AMERICA, as represented by the …, priority 1999, dated 2001).
Where “and” joins values, the source holds several entries; their conditions need not be identical. Equal values may be shown once. Read-outs that look alike come from different tables or passages of the source.

Legend:
[1] = test system: HIV-1 isolate 4xAZT/L100I; experiment: Cytopathic cell killing assay, cross-resistance profile, infected MT-4 cells; format: cell-based
Experimental: The various HIV isolates tested in the Figures are those corresponding to wild-type virus (NL4-3) and the other strains listed by their RT mutations. The three 4xAZT isolates included in the Figures represent AZT drug-resistant variants. […]
Briefly, in this method cells (e.g., the CEM-SS cell line, available from the NIAID AIDS Research and Reference Program [ARRRP]) were seeded at a density of 5 x 10^3 cells/well, into the wells of a 96-well microtiter plate. The cells were then infected with HIV virus (either mutant or WT), at a multiplicity of infection (MOI) previously determined to provide complete cell killing by 6 days of culture post-infection (e.g., MOI of 0.01-0.05). Each of the HIV isolates was pre-titered to induce equivalent levels of infection based on cell killing or virus production, prior to their use in these assays. A range of test compound concentrations was added to the wells in triplicate (e.g., serial half-log dilutions) to evaluate inhibition of HIV infection. Controls for each assay included drug controls (drug colorimetric control wells), drug cytotoxicity control wells (cells with drug), virus control wells (cells with virus), and cell viability controls (cells only). Positive control drugs (e.g., AZT and ddC) were also run in parallel.
After six days of incubation at 37°C, cell viability was determined spectrophotometrically at 450 nm for each well, using the metabolic reduction of XTT to a soluble colored formazan. (See, Gartner and Popovic, "Virus Isolation and Production, in Aldovini and Walker (eds.), Techniques in HIV Research, Stockton Press, NY, pp. […] [1991]; and Nara and Fischinger, "Quantitative Infectivity Assay for HIV-1 and HIV-2," Nature 332:469-470 [1988]).
The in vitro therapeutic index (TI50) was defined as the fold-difference between the EC50 and IC50.

[2] = test system: HIV-1 variant A98G; experiment: as above; format: cell-based
Procedure, shortened: (§1)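 Cytopathic protection format: 5 x 10^3 cells/well, HIV-1 WT or RT mutant, MOI ~0.01-0.05 (full killing by d6); triplicate half-log drug series; 37°C, 6 d; XTT read at 450 nm; uninfected drug wells for cytotoxicity.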

[3] = test system: HIV-1 variant V108I; experiment: as above; format: cell-based
Procedure, shortened: as §1

[4] = test system: HIV-1 isolate 4xAZT; experiment: as above; format: cell-based
Procedure, shortened: as §1

[5] = test system: HIV-1 variant L100I; experiment: as above; format: cell-based
Procedure, shortened: as §1

[6] = test system: HIV-1 variant K103N; experiment: as above; format: cell-based; settings: isolate K103N
Procedure, shortened: as §1

[7] = test system: HIV-1 variant V179D; experiment: as above; format: cell-based
Procedure, shortened: as §1

[8] = test system: HIV-1 variant M184l; experiment: as above; format: cell-based
Procedure, shortened: as §1

[9] = test system: HIV-1 variant Y188H; experiment: as above; format: cell-based
Procedure, shortened: as §1

[10] = test system: HIV-1 variant Y188C; experiment: as above; format: cell-based
Procedure, shortened: as §1

[11] = test system: HIV-1 variant V106A; experiment: as above; format: cell-based
Procedure, shortened: as §1

[12] = test system: HIV-1 isolate 4xAZT/Y181C; experiment: as above; format: cell-based
Procedure, shortened: as §1

[13] = test system: HIV-1 variant K101E; experiment: as above; format: cell-based
Procedure, shortened: as §1

[14] = test system: HIV-1 variant L74V; experiment: as above; format: cell-based
Procedure, shortened: as §1

[15] = target: T1, HIV-1 WT RT (Human immunodeficiency virus type 1 group M subtype B, UniProt P03366); experiment: biochemical
T1 construct: purified RT protein (0.015 mg/mL) was incubated in a 100 µL reaction mixture

[16] = test system: WT virus (NL4-3); experiment: microbe, parasite or virus in culture; format: cell-based, HIV-1
Procedure, shortened: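 CEM-SS cells (5 x 10^3/well) infected with HIV-1 at an MOI giving complete killing by day 6 (e.g., 0.01-0.05), with serial half-log compound dilutions in triplicate. After 6 days at 37°C, viability read by XTT reduction at 450 nm. CIC50 derived from protection against cytopathic killing.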

[17] = test system: NL4-3 (WT); experiment: Cytopathic cell killing assay, cross-resistance profile, infected MT-4 cells; format: cell-based, HIV-1
Procedure, shortened: as §1

[18] = target: T1, HIV-1 WT RT; settings: reported by Pauwels et al. (TIBO) and Buckheit et al. (thiazolobenzimidazole); read-out: IC50 for rC:dG; cited from earlier work
[19] = test system: HIV-1 variant Y181C; experiment: Cytopathic cell killing assay, cross-resistance profile, infected MT-4 cells; format: cell-based
Procedure, shortened: as §1

[20] = Human immunodeficiency virus 1, MT4, Table 10 (values in µM), isolate V108l
[21] = Human immunodeficiency virus 1, MT4, Table 10 (values in µM), isolate L1001
[22] = Human immunodeficiency virus 1, MT4, Table 10 (values in µM)
[23] = Human immunodeficiency virus 1, MT4, Table 10 (values in µM), isolate K101E
[24] = Human immunodeficiency virus 1, NL43, MT4, Table 10 (values in µM), isolate NL4-3 (WT)
[25] = Human immunodeficiency virus 1, MT4

## 4-amino-1-(2,6-difluorobenzyl)-2-(2,6-difluorophenyl)benzimidazole [compound 53]
[1]; Table 8, isolate 4XA7T L 1001, read-out: EC50
  EC50: 300 nM
[2]; Table 8, isolate A9SG, read-out: EC50
  EC50: 1500 nM
[3]; Table 8, isolate V1081, read-out: EC50
  EC50: > 20 µM
[4]; Table 8, isolate 4XAZT, read-out: EC50
  EC50: 200 nM
[5]; Table 8, isolate 1.1001, read-out: EC50
  EC50: 1.3 µM
[6]; Table 8, read-out: EC50
  EC50: > 20 µM
[7]; Table 8, isolate V179D, read-out: EC50
  EC50: 6000 nM
[8]; Table 10 (values in µM), isolate M184l, read-out: EC50
  EC50: 0.65 µM
[9]; Table 10 (values in µM), isolate Y188H, read-out: EC50
  EC50: > 50 µM
[10]; Table 8, isolate Y 188C, read-out: EC50
  EC50: 2.7 µM
[10]; Table 10 (values in µM), isolate Y188C, read-out: EC50
  EC50: 2 µM
[11]; Table 8, isolate V 106A, read-out: EC50
  EC50: > 20000 nM
[12]; Table 8, isolate 4XAZT /Y181C, read-out: EC50
  EC50: > 10000 nM
[13]; Table 8, isolate K101E, read-out: EC50
  EC50: > 20 µM
[14]; Table 8, isolate 1.74V, read-out: EC50
  EC50: 300 nM
[15]; HIV-1 WT RT, read-out: IC50
  IC50: 280 nM
[15]; Table 7, HIV-1 WT RT, read-out: IC50
  IC50: 280 nM
[15]; Table 7, WT HIV-1 RT, 1 µM drug
  %inhibn (1µM): 69%
[15]; Table 11, WT RT, read-out: IC50
  IC50: 280 nM
[16]; Table 7, concentration reducing cell killing or virus production by 50%, HIV-1 WT, read-out: EC50
  EC50: 460 nM
[16]; Table 11, CEMSS/NL4-3, NRVC = reduction in viral CPE not seen (footnote), read-out: EC50
  EC50: 460 nM
[17]; Table 8, isolate N1.43, read-out: EC50
  EC50: 0.5 µM
[17]; Table 10 (values in µM), isolate NL4-3 (WT), listed as NH2, read-out: EC50
  EC50: 0.68 µM and 0.4 µM

## CC1Cn2c(=O)[nH]c3cccc(c32)CN1 (centres unmarked) [TIBO, 4,5,6,7-tetrahydro-5-methylimidazo[4,5,1-jk][1,4]benzodiazepin-2(1H)-one, reference compound]
[1]; Human immunodeficiency virus 1, MT4, Table 4, isolate 4xAZT/L.1001
  EC50: > 17400 nM
[1]; Human immunodeficiency virus 1, MT4, Table 9, isolate 4XAZT /L1001
  EC50: > 20000 nM
[18]
  IC50: 60 nM
[2]; Human immunodeficiency virus 1, MT4, Table 4, isolate A98G
  EC50: 11000 nM
[2]; Human immunodeficiency virus 1, MT4, Table 9, isolate A98G
  EC50: 11000 nM
[3]; Human immunodeficiency virus 1, MT4, Table 4, isolate V108I
  EC50: 2.4 µM
[3]; Human immunodeficiency virus 1, MT4, Table 9, isolate V1081
  EC50: 2.4 µM
[3]; [20]
  EC50: 2.4 µM
[19]; Human immunodeficiency virus 1, MT4, Table 4, isolate Y181C
  EC50: 4.2 µM
[19]; Human immunodeficiency virus 1, MT4, Table 9, isolate Y181C
  EC50: 4.2 µM
[19]; Human immunodeficiency virus 1, MT4, Table 10 (values in µM), isolate Y181C
  EC50: 4.2 µM
[4]; Human immunodeficiency virus 1, MT4, Table 4, isolate 4xAZT
  EC50: 300 nM
[4]; Human immunodeficiency virus 1, MT4, Table 9, isolate 4XAZT
  EC50: 300 nM
[5]; Human immunodeficiency virus 1, MT4, Table 4, isolate L1001
  EC50: 17.4 µM
[5]; Human immunodeficiency virus 1, MT4, Table 9, isolate L1001
  EC50: > 10 µM
[5]; [21]
  EC50: 17.4 µM
[6]; Human immunodeficiency virus 1, MT4, Table 4
  EC50: 17.4 µM
[6]; Human immunodeficiency virus 1, MT4, Table 9
  EC50: > 10 µM
[6]; [22]
  EC50: 17.4 µM
[7]; Human immunodeficiency virus 1, MT4, Table 4, isolate V179D
  EC50: 6200 nM
[7]; Human immunodeficiency virus 1, MT4, Table 9, isolate V179D
  EC50: 6200 nM
[10]; Human immunodeficiency virus 1, MT4, Table 4, isolate Y188C
  EC50: > 17.4 µM
[10]; Human immunodeficiency virus 1, MT4, Table 9, isolate Y188C
  EC50: > 20 µM
[10]; Human immunodeficiency virus 1, MT4, Table 10 (values in µM), isolate Y188C
  EC50: > 17.4 µM
[11]; Human immunodeficiency virus 1, MT4, Table 4, isolate V106A
  EC50: 12500 nM
[11]; Human immunodeficiency virus 1, MT4, Table 9, isolate V106A
  EC50: > 10000 nM
[12]; Human immunodeficiency virus 1, MT4, Table 4, isolate 4xAZT/Y181C
  EC50: 2000 nM
[12]; Human immunodeficiency virus 1, MT4, Table 9, isolate 4XAZT /Y181C
  EC50: 2000 nM
[13]; Human immunodeficiency virus 1, MT4, Table 4, isolate K101E
  EC50: 17.4 µM
[13]; Human immunodeficiency virus 1, MT4, Table 9, isolate KIOIE
  EC50: > 10 µM
[13]; [23]
  EC50: 17.4 µM
[14]; Human immunodeficiency virus 1, MT4, Table 4, isolate L74V
  EC50: 200 nM
[14]; Human immunodeficiency virus 1, MT4, Table 9, isolate 1.74 V
  EC50: 200 nM
[17]; Human immunodeficiency virus 1, NL43, MT4, Table 4, isolate NL4-3 (WT)
  EC50: 0.3 µM
[17]; Human immunodeficiency virus 1, NL43, MT4, Table 9, isolate NL4.3
  EC50: 0.3 µM
[17]; [24]
  EC50: 0.3 µM

## CCc1cccc2c1nc(-c1c(F)cccc1F)n2Cc1c(F)cccc1F [compound 47, 1-(2,6-difluorobenzyl)-2-(2,6-difluorophenyl)-4-ethylbenzimidazole]
[1]; [25]
  EC50: 600 nM
[2]; [25]
  EC50: 8000 nM
[3]; Human immunodeficiency virus 1, MT4, Table 8, isolate V1081
  EC50: 3 µM
[3]; [20]
  EC50: > 50 µM
[19]; [25]
  EC50: 7.18 µM
[4]; [25]
  EC50: 1000 nM
[5]; Human immunodeficiency virus 1, MT4, Table 8, isolate 1.1001
  EC50: 0.6 µM
[5]; [21]
  EC50: 2.48 µM
[6]; Human immunodeficiency virus 1, MT4, Table 8
  EC50: > 20 µM
[6]; [22]
  EC50: > 50 µM
[7]; [25]
  EC50: 1800 nM
[8]; [25]
  EC50: 0.96 µM
[9]; [25]
  EC50: 13.2 µM
[10]; [25]
  EC50: 5.5 µM
[11]; [25]
  EC50: > 20000 nM
[12]; [25]
  EC50: > 20000 nM
[13]; Human immunodeficiency virus 1, MT4, Table 8, isolate K101E
  EC50: > 20 µM
[13]; [23]
  EC50: > 50 µM
[14]; [25]
  EC50: 1500 nM
[15]
  IC50: 17500 nM
[15]; read-out: %inhibn (1µM)
  inhibition at 1 µM: 50%
[16]; Human immunodeficiency virus 1, NL43, CEM-SS
  EC50: 820 nM
[17]; Human immunodeficiency virus 1, NL43, MT4, Table 8, isolate N1.43
  EC50: 1.1 µM
[17]; [24]
  EC50: 0.9 µM
